# Tests used:
# [1] = test system: influenza A virus A/Aichi/2/68 (H3N2); assay: Cytopathic effect (CPE) assay H3N2 in MDCK cells; assay type: cell-based, influenza A virus (A/Aichi/2/68 (H3N2)); MDCK cells
# Protocol: A possible measure of the […] antiviral activity of the compounds having the formula I or II is the CPE assay disclosed herein. […] In this connection, the reduction in the virus-mediated cytopathic effect (CPE) upon treatment with the compounds was calculated as follows: The cell viability of infected-treated and uninfected-treated cells was determined using an ATP-based cell viability assay (Promega). The response in relative luminescent units (RLU) of infected-untreated samples was subtracted from the response (RLU) of the infected-treated samples and then normalized to the viability of the corresponding uninfected sample resulting in % CPE reduction.
# The influenza A virus (IAV) was obtained from American Tissue Culture Collection (A/Aichi/2/68 (H3N2); VR-547). Virus stocks were prepared by propagation of virus on Mardin-Darby canine kidney (MDCK; ATCC CCL-34) cells and infectious titres of virus stocks were determined by the 50% tissue culture infective dose (TCID50) analysis as described in Reed, L. J., and H. Muench. 1938, Am. J. Hyg. 27:493-497.
# MDCK cells were seeded in 96-well plates at 2×10^4 cells/well using DMEM/Ham's F-12 (1:1) medium containing 10% foetal bovine serum (FBS), 2 mM L-glutamine and 1% antibiotics (all from PAA). Until infection the cells were incubated for 5 hrs at 37° C., 5.0% CO2 to form a -80% confluent monolayer on the bottom of the well. Each test compound was dissolved in DMSO and generally tested at 25 μM and 250 μM. In those cases where the compounds were not soluble at that concentration they were tested at the highest soluble concentration. The compounds were diluted in infection medium (DMEM/Ham's F-12 (1:1) containing 5 μg/ml trypsin, and 1% antibiotics) for a final plate well DMSO concentration of 1%. The virus stock was diluted in infection medium (DMEM/Ham's F-12 (1:1) containing 5 μg/m1Trypsin, 1% DMSO, and 1% antibiotics) to a theoretical multiplicity of infection (M01) of 0.05.
# After removal of the culture medium and one washing step with PBS, virus and compound were added together to the cells. In the wells used for cytotoxicity determination (i.e. in the absence of viral infection), no virus suspension was added. Instead, infection medium was added. Each treatment was conducted in two replicates. After incubation at 37° C., 5% CO2 for 48 hrs, each well was observed microscopically for apparent cytotoxicity, precipitate formation, or other notable abnormalities. Then, cell viability was determined using
# CellTiter-Glo luminescent cell viability assay (Promega). The supernatant was removed carefully and 65 μl of the reconstituted reagent were added to each well and incubated with gentle shaking for 15 min at room temperature. Then, 60 μl of the solution was transferred to an opaque plate and luminescence (RLU) was measured using Synergy HT plate reader (Biotek).
# Relative cell viability values of uninfected-treated versus uninfected-untreated cells were used to evaluate cytotoxicity of the compounds. Substances with a relative viability below 80% at the tested concentration were regarded as cytotoxic and retested at lower concentrations.
# Reduction in the virus-mediated cytopathic effect (CPE) upon treatment with the compounds was calculated as follows: The response (RLU) of infected-untreated samples was subtracted from the response (RLU) of the infected-treated samples and then normalized to the viability of the corresponding uninfected sample resulting in % CPE reduction.
# [2] = molecular target: PB2 cap binding domain (CBD) of an avian H5N1 influenza virus (Influenza A virus, UniProt Q9Q0V1); assay: biochemical
# Sequence of PB2 cap binding domain (CBD) of an avian H5N1 influenza virus (Q9Q0V1 318-483 limits assumed): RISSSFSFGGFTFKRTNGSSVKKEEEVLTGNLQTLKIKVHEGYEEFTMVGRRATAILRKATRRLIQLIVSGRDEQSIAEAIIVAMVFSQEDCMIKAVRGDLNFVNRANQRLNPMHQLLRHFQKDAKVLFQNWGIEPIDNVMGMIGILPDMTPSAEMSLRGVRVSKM
Structure (SMILES),CPE H3N2 reduction (%) ([1]; activity conc 50 (μM)),also measured
N/C(=N\O)c1ccc(C(=O)NO)nc1,−4.8%,–
CON(C)C(=O)c1ccc2ccccc2n1,−1.2%,–
O=C(NOC(=O)c1cc(N2CCCCC2)ccn1)c1cc(N2CCCCC2)ccn1,29%,–
CCONC(=O)c1cc(NCC2CCN(Cc3ccccc3)CC2)ccn1.Cl.Cl,14.8%,–
Cc1cccc(C(=O)NOCc2ccccc2)n1,−2.7%,–
CCONC(=O)c1cccc(C)n1,−2.1%,–
COc1ccc2nc(C(=O)NOCc3ccccc3)ccc2c1,−1.9%,–
Cc1cccc(C(=O)N(C)OCc2ccccc2)n1,−2.3%,–
CCON(C)C(=O)c1cccc(C)n1,−1.9%,–
CN(OCc1ccccc1)C(=O)c1ccc(-c2ccccc2)cn1,−2.6%,–
O=C(c1cc2ccccc2cn1)N(O)Cc1ccccc1,34.2%,–
O=C(NO)c1cc2ccccc2cn1,94.3%,–
O=C(NO)c1ccc(N2CCCC2)cn1,−4.3%,–
Cl.O=C(c1cc(NS(=O)(=O)Cc2ccc(F)cc2)ccn1)N(O)Cc1ccccc1,−1.1%,–
Cl.O=C(c1cc(C2=CCCNC2)ccn1)N(O)Cc1ccccc1,9.5%,–
CN1CCN(c2ccnc(C(=O)N(C)O)c2)CC1,2.6%,–
CN(O)C(=O)c1cc(N2CCOCC2)ccn1,5.7%,–
Cl.O=C(c1cc(NS(=O)(=O)Cc2cccc(F)c2)ccn1)N(O)Cc1ccccc1,9.6%,–
O=C(c1cc(C2CCCNC2)ccn1)N(O)Cc1ccccc1 (centres unmarked),6.1%,–
Cl.O=C(c1cc(N2CCC(F)CC2)ccn1)N(O)Cc1ccccc1,34%,–
Cl.O=C(c1cc(NS(=O)(=O)Cc2cccc(Cl)c2)ccn1)N(O)Cc1ccccc1,9.5%,–
Cl.O=C(c1cc(NS(=O)(=O)Cc2cccc(C(F)(F)F)c2)ccn1)N(O)Cc1ccccc1,22.4%,–

Structure (SMILES),CPE H3N2 reduction (%) ([1]; activity conc 50 (μM)),also measured
O=C(NO)c1ccccn1,3.15%,–
Nc1ccccc1NC(=O)c1ccc(C(=O)NO)nc1,−5.53%,–
O=C(c1cc(C2=CC3CCC(C2)N3)ccn1)N(O)Cc1ccccc1 (centres unmarked),5.49%,–
Cl.O=C(NO)c1cc(NS(=O)(=O)Cc2ccc(Cl)c(Cl)c2)ccn1,53.43%,–
Cl.O=C(NO)c1cc(NS(=O)(=O)Cc2cccc3cccnc23)ccn1,24.39%,–
Cc1c(-c2ccccc2)sc2nc(N)[nH]c(=O)c12 [SAV-7475],–,CPE H3N2 reduction (%) ([1]; activity conc 5): 8.9%
Nc1nc2sc(Cc3ccccc3)cc2c(=O)[nH]1 [SAV-7517],–,CPE H3N2 reduction (%) ([1]; activity conc 10): 39.3 13 −2.64%
Cc1c(Cc2ccccc2)sc2nc(N)[nH]c(=O)c12 [SAV-7521],–,CPE H3N2 reduction (%) ([1]; activity conc 25): 64.7 6 33.6%
Nc1nc2sc(-c3ccccc3)cc2c(=O)[nH]1 [SAV-7549],65.5 −2.4 8.8%,–
COc1ccc(-c2sc3nc(N)[nH]c(=O)c3c2C)cc1 [SAV-7575],–,CPE H3N2 reduction (%) ([1]; activity conc 20): 35.9 9.02 4%
Cc1c(-c2ccc(Cl)cc2)sc2nc(N)[nH]c(=O)c12 [SAV-7579],–,CPE H3N2 reduction (%) ([1]; activity conc 20): 21.4 11.3 0.27%
Cc1c(-c2cccc(Cl)c2)sc2nc(N)[nH]c(=O)c12 [SAV-7580],–,Biacore Binding (RU) [2]: 21.2 89.8 11 8.9 RU
Cc1c(-c2cccc(C(F)(F)F)c2)sc2nc(N)[nH]c(=O)c12 [SAV-7581],87.8%,–
Cc1c(-c2ccccc2)sc2nc(NCCCO)[nH]c(=O)c12 [SAV-7582],102.9 4.2 53.1%,–
Cc1c(-c2ccccc2)sc2nc(NCCN(C)C)[nH]c(=O)c12 [SAV-7583],–,Biacore Binding (RU) [2]: 77.8 4.8 66 RU; Kd [2]: 66 µM
Cc1ccc(-c2sc3nc(N)[nH]c(=O)c3c2C)cc1 [SAV-7585],–,CPE H3N2 reduction (%) ([1]; activity conc 2.5): 28.9%
Cc1c(-c2ccncc2)sc2nc(N)[nH]c(=O)c12 [SAV-7586],–,CPE H3N2 reduction (%) ([1]; activity conc 15): 81.2%
Cc1c(-c2cccnc2)sc2nc(N)[nH]c(=O)c12 [SAV-7589],63.1%,–
Cc1c(-c2cccc(C#N)c2)sc2nc(N)[nH]c(=O)c12 [SAV-7594],–,CPE H3N2 reduction (%) ([1]; activity conc 5): 14.5%
Cc1c(-c2ccccc2Cl)sc2nc(N)[nH]c(=O)c12 [SAV-7596],–,Biacore Binding (RU) [2]: 11 29.6 13.6 RU; Kd [2]: 11 µM
Cc1c(-c2ccccc2F)sc2nc(N)[nH]c(=O)c12 [SAV-7598],–,CPE H3N2 reduction (%) ([1]; activity conc 2): 21.3 3.7 11.4%
Cc1c(-c2ccc(F)cc2)sc2nc(N)[nH]c(=O)c12 [SAV-7601],69.2 1.1 44.3%,–

Structure (SMILES),CPE H3N2 reduction (%) ([1]; activity conc 50 (μM)),also measured
Cc1c(-c2ccc(Cl)c(C#N)c2)sc2nc(N)[nH]c(=O)c12 [SAV-7602],–,CPE H3N2 reduction (%) ([1]; activity conc 20): 67.9 1.7 35.1%
CC(c1ccccc1)c1cc2c(=O)[nH]c(N)nc2s1 (centres unmarked) [SAV-7604],–,CPE H3N2 reduction (%) ([1]; activity conc 20): −4.7 6.4%
Cc1c(-c2ccc(F)cc2F)sc2nc(N)[nH]c(=O)c12 [SAV-7610],–,CPE H3N2 reduction (%) ([1]; activity conc 2): −1.6%
Cc1c(C2=CCNCC2)sc2nc(N)[nH]c(=O)c12 [SAV-7614],190 10.6%,–
Cc1c(-c2cc(C#N)ccc2F)sc2nc(N)[nH]c(=O)c12 [SAV-7615],–,CPE H3N2 reduction (%) ([1]; activity conc 20): 59.2%
Cc1c(-c2cccc(Cl)c2F)sc2nc(N)[nH]c(=O)c12 [SAV-7616],–,CPE H3N2 reduction (%) ([1]; activity conc 10): 68.7%
Cc1c(-c2cc(C#N)ccc2Cl)sc2nc(N)[nH]c(=O)c12 [SAV-7617],–,CPE H3N2 reduction (%) ([1]; activity conc 2): 2 5.1%
Cc1c(-c2ccc(Cl)cc2F)sc2nc(N)[nH]c(=O)c12 [SAV-7618],77.4%,–
Cc1cc(-c2sc3nc(N)[nH]c(=O)c3c2C)ccc1Cl [SAV-7620],57.8%,–
Cc1c(-c2ccc(F)nc2F)sc2nc(N)[nH]c(=O)c12 [SAV-7621],–,"IC50 ([1]; Influenza A virus, H3N2, MDCK, read-out: CPE H3N2 IC50 [μM]): 70 µM; CPE H3N2 reduction (%) ([1]; activity conc 25): 14.3%"
Cc1c(-c2ccc(Cl)c(C(F)(F)F)c2)sc2nc(N)[nH]c(=O)c12 [SAV-7623],–,CPE H3N2 reduction (%) ([1]; activity conc 5): 1.9%
Cc1c(-c2ccc(Cl)c(C(=O)N(C)C)c2)sc2nc(N)[nH]c(=O)c12 [SAV-7626],–,CPE H3N2 reduction (%) ([1]; activity conc 25): 6.4 −4.6%
Cc1c(-c2cccc(C#N)c2F)sc2nc(N)[nH]c(=O)c12 [SAV-7627],71.2%,–
Cc1c(-c2ccc(F)c(C#N)c2F)sc2nc(N)[nH]c(=O)c12 [SAV-7628],84.3%,–
Cc1c(-c2cccc(CN(C)C)c2)sc2nc(N)[nH]c(=O)c12 [SAV-7629],38.3%,–
Cc1c(-c2ccc(Cl)nc2)sc2nc(N)[nH]c(=O)c12 [SAV-7632],0.75 53%,–
Cc1c(-c2ccnc(Cl)c2F)sc2nc(N)[nH]c(=O)c12 [SAV-7633],63.1%,–
Cc1c(-c2c(F)ccc(Cl)c2F)sc2nc(N)[nH]c(=O)c12 [SAV-7637],–,CPE H3N2 reduction (%) ([1]; activity conc 5): 1.5%
Cc1c(-c2ccccc2)sc2nc(Nc3ccccc3)[nH]c(=O)c12 [SAV-7638],–,CPE H3N2 reduction (%) ([1]; activity conc 5): 8.7%
Cc1c(-c2ccccc2)sc2nc(NC3CCCCC3)[nH]c(=O)c12 [SAV-7640],–,CPE H3N2 reduction (%) ([1]; activity conc 5): −3.2%
O=C(NO)c1cc(NS(=O)(=O)Cc2ccccc2)ccn1 [drawing 243],5.1%,–
